Source: patent publication US20190112316A1, “THIAZOLO[3,2-A] PYRIMIDINONE AND OTHER HETEROBICYCLIC PYRIMIDINONE COMPOUNDS FOR USE IN MEDICAL THERAPY” (priority 2015, published 2019)
Values after ≈ are worked out from the molar mass of the structure shown.

Legend:
[1] = target: T1, glucocerebrosidase (Gcase) (Homo sapiens, UniProt P04062); experiment: Glucocerebrosidase (Gcase) activation assay, 4-methylumbelliferyl-beta-D-glucopyranoside substrate, with saposin C; format: biochemical; settings: for activation at 0.1 µM: read-out: Percent Gcase Activation 0.1 μM Test Compound; for activation at 1 µM: read-out: Percent Gcase Activation 1 μM Test Compound
T1 construct: micellar solution containing 10 nM GCase and 100 nM saposin C (Enzo ALX-201-262-C050)
T1 sequence (P04062 40-536): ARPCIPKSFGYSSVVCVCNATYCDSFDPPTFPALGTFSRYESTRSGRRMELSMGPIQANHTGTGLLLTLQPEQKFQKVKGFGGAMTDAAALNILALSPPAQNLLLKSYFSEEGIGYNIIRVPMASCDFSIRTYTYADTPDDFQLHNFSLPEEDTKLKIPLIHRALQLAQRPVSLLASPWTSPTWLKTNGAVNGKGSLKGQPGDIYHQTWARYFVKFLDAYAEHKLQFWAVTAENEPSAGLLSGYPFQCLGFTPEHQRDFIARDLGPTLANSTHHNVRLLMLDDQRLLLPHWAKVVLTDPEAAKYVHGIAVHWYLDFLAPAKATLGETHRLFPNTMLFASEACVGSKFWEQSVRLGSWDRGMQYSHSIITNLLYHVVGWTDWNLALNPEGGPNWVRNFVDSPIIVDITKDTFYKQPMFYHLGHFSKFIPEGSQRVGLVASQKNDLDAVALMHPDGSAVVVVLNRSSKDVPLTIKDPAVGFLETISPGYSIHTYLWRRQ
Description: A 484 μL aliquot of a 1.0 mg/mL solution of phosphatidylserine (PS) (Sigma P7769) in chloroform was evaporated under a stream of nitrogen for 1 hour. The lipid film was dissolved over 4 minutes of vigorous vortexing in 40 mL of 176 mM K2HPO4/50 mM citric acid (pH 4.7) containing 7.5 μL of triton X-100, resulting in a mixed micellar preparation with a composition of 0.32 mM triton and 0.37 mol % PS. 4-Methylumbelliferyl-beta-D-glucopyranoside (ACROS-337025000) was dissolved in the micellar solution to a final concentration of 2 mM for use as the reaction substrate.
Test compounds were diluted to the desired concentrations with dimethylsulfoxide (DMSO) from 10 mM stocks, and 0.41 μL of the DMSO compound mixture was added to 100 μL of micellar solution containing 10 nM GCase and 100 nM saposin C (Enzo ALX-201-262-C050). Pre-incubation was allowed to occur for 30 minutes at room temperature, after which the reaction was initiated by combining 25 μL of substrate solution with 25 μL of compound/GCase/saposin mixture. The reaction proceeded for 15 minutes at room temperature and was stopped by adding 150 μL of 1M glycine, pH 12.5. The endpoint of the reaction was monitored by measuring fluorescence intensity (excitation: 365 nm; emission: 440 nm) on a SpectraMax i3 instrument (Molecular Devices). Test compounds were screened at 1.0 and 0.1 μM final concentration, and subsequent 8-point dose response curves were obtained using 3-fold dilutions from a maximum final concentration of 5 μM.

[2] = Compound solubility in water; format: physicochemical

Structure (SMILES)	activation at 0.1 µM [1] [%]	activation at 1 µM [1] [%]	solubility [2] [µg/mL]
Cc1cccc2ncc(C(=O)Nc3ccc(-n4ccnc4)cc3)c(=O)n12	< 5	5 to 20	1.2 (≈ 3.47 µM)
CCc1ccc(NC(=O)c2cnc3sccn3c2=O)cc1	5 to 20	> 20	–
Cc1csc2ncc(C(=O)Nc3ccc(Oc4ccccc4)cc3)c(=O)n12	5 to 20	> 20	–
Cc1ccc(NC(=O)c2cnc3sc(C)cn3c2=O)cc1	–	5 to 20	–
COc1ccc(NC(=O)c2cnc3scc(C)n3c2=O)cc1	–	> 20	–
O=C(Nc1ccc(C2CCCCC2)cc1)c1cnc2n(c1=O)CCS2	5 to 20	> 20	–
O=C(Nc1ccc(-c2ccco2)cc1)c1cnc2n(c1=O)CCS2	5 to 20	5 to 20	–
COCC#Cc1ccc(NC(=O)c2cnc3n(c2=O)CCS3)cc1	5 to 20	5 to 20	–
O=C(NC1CCOc2ccccc21)c1cnc2n(c1=O)CCS2 (stereo not shown)	< 5	5 to 20	–
O=C(NCCOc1ccccc1)c1cnc2n(c1=O)CCS2	< 5	5 to 20	–
CCc1ccc(CNC(=O)c2cnc3sccn3c2=O)cc1	< 5	5 to 20	17 (≈ 54.2 µM)
Cc1csc2ncc(C(=O)Nc3ccc(F)cc3)c(=O)n12	–	< 5	–
O=C(NC1CCOCC1)c1cnc2n(c1=O)CCS2	< 5	5 to 20	26.3 (≈ 93.5 µM)
Cc1ccc(NC(=O)c2cnc3scc(C)n3c2=O)cc1C	–	5 to 20	–
Cc1csc2ncc(C(=O)Nc3ccc(C(C)C)cc3)c(=O)n12	5 to 20	> 20	0.5 (≈ 1.53 µM)
O=C(Nc1ccc(-c2cocn2)cc1)c1cnc2n(c1=O)CCS2	< 5	< 5	–
O=C(Nc1ccc(N2CCCCC2)cc1)c1cnc2n(c1=O)CCS2	< 5	< 5	4 (≈ 11.2 µM)
O=C(NC1CCCc2ccccc21)c1cnc2n(c1=O)CCS2 (stereo not shown)	< 5	> 20	7.1 (≈ 21.7 µM)
O=C(NC1CCc2ccccc21)c1cnc2n(c1=O)CCS2 (stereo not shown)	< 5	5 to 20	17.6 (≈ 56.2 µM)
CCC(C)c1ccc(NC(=O)c2cnc3c(C)cccn3c2=O)cc1 (stereo not shown)	< 5	5 to 20	0.5 (≈ 1.49 µM)
CCc1ccc(NC(=O)c2cnc3scc(-c4ccccc4)n3c2=O)cc1	–	> 20	–

Structure (SMILES)	activation at 0.1 µM [1] [%]	activation at 1 µM [1] [%]	solubility [2] [µg/mL]
O=C(NC1CCCCC12CCCCO2)c1cnc2n(c1=O)CCS2 (stereo not shown)	< 5	< 5	37.2 (≈ 106 µM)
O=C(NC1CC2CCC1C2)c1cnc2n(c1=O)CCS2 (stereo not shown)	< 5	< 5	–
CCc1ccc(NC(=O)c2cnc3ccccn3c2=O)cc1	< 5	5 to 20	1 (≈ 3.41 µM)
CCCCc1ccc(NC(=O)c2cnc3cccc(C)n3c2=O)cc1	5 to 20	> 20	0.05 (≈ 0.149 µM)
Cc1ccc(NC(=O)c2cnc3scc(C)n3c2=O)cc1F	–	5 to 20	–
CCCCc1ccc(NC(=O)c2cnc3sc4c(n3c2=O)CCCC4)cc1	–	5 to 20	–
CCCCC1CCC(NC(=O)c2cnc3n(c2=O)CC(C)S3)CC1 (stereo not shown)	< 5	> 20	1.2 (≈ 3.43 µM)
Cc1ccn2c(=O)c(C(=O)NC3CCc4ccccc4C3)cnc2c1 (stereo not shown)	< 5	5 to 20	–
CCN1CCN(c2ccc(NC(=O)c3cnc4cccc(C)n4c3=O)cc2)CC1	< 5	5 to 20	33.3 (≈ 85.1 µM)
Cc1cccc2ncc(C(=O)NC3CCC(C)CC3)c(=O)n12 (stereo not shown)	< 5	> 20	18.7 (≈ 62.5 µM)
CCCCc1ccc(NC(=O)c2cnc3scc(C)n3c2=O)cc1	5 to 20	> 20	–
Cc1cccc2ncc(C(=O)NC3CCC(c4ccccc4)CC3)c(=O)n12 (stereo not shown)	5 to 20	> 20	3.5 (≈ 9.68 µM)
Cc1csc2ncc(C(=O)Nc3ccc4c(c3)OCO4)c(=O)n12	< 5	5 to 20	–
O=C(Nc1ccc(-n2ccnc2)cc1)c1cnc2n(c1=O)CCS2	< 5	< 5	0.8 (≈ 2.36 µM)
Cc1cccc2ncc(C(=O)Nc3ccc(C4CCCCC4)cc3)c(=O)n12	< 5	> 20	0.2 (≈ 0.553 µM)
COc1cccc(NC(=O)c2cnc3scc(C)n3c2=O)c1	–	5 to 20	–
CCc1ccc(NC(=O)c2cnc3scc(C)n3c2=O)cc1	< 5	> 20	1.1 (≈ 3.51 µM)
Cc1csc2ncc(C(=O)Nc3ccc(N(C)C)cc3)c(=O)n12	–	5 to 20	–
CCCCc1ccc(NC(=O)c2cnc3n(c2=O)CCS3)cc1	5 to 20	> 20	0.2 (≈ 0.607 µM)
Cc1ccc(CNC(=O)c2cnc3scc(C)n3c2=O)cc1	–	5 to 20	–
CCOc1ccc(NC(=O)c2cnc3scc(C)n3c2=O)cc1	–	5 to 20	–

Structure (SMILES)	activation at 0.1 µM [1] [%]	activation at 1 µM [1] [%]	solubility [2] [µg/mL]
O=C(Nc1ccc(-c2cccs2)cc1)c1cnc2n(c1=O)CCS2	5 to 20	5 to 20	–
Cc1cccc2ncc(C(=O)NC3CCOc4ccccc43)c(=O)n12 (stereo not shown)	< 5	5 to 20	–
CCOc1ccccc1NC(=O)c1cnc2scc(C)n2c1=O	–	5 to 20	–
COc1ccc(NC(=O)c2cnc3scc(C)n3c2=O)c(OC)c1	–	5 to 20	–
Cc1csc2ncc(C(=O)Nc3ccc(Cl)cc3)c(=O)n12	–	> 20	–
Cc1cccc2ncc(C(=O)NCCOc3ccccc3)c(=O)n12	< 5	5 to 20	–
Cc1ccc(NC(=O)c2cnc3n(c2=O)CCS3)cc1-c1ncco1	< 5	5 to 20	–
CCCCc1ccc(NC(=O)c2cnc3scc(-c4ccccc4)n3c2=O)cc1	–	> 20	–
Cc1csc2ncc(C(=O)Nc3ccc(-c4cocn4)cc3)c(=O)n12	< 5	5 to 20	–
Cc1ccc(NC(=O)c2cnc3scc(C)n3c2=O)c(C)c1	–	> 20	–
Cc1ccc(NC(=O)c2cnc3scc(C)n3c2=O)cc1Cl	–	5 to 20	–
CCCCC1CCC(NC(=O)c2cnc3n(c2=O)CCS3)CC1 (stereo not shown)	5 to 20	> 20	–
Cc1sc2ncc(C(=O)Nc3ccc(C(C)C)cc3)c(=O)n2c1C	–	< 5	–
Cc1ccccc1NC(=O)c1cnc2scc(C)n2c1=O	–	5 to 20	–
Cc1cc(C)cc(NC(=O)c2cnc3sccn3c2=O)c1	–	5 to 20	–
COC(=O)c1ccc(NC(=O)c2cnc3scc(C)n3c2=O)cc1	–	5 to 20	–
Cc1ccc(NC(=O)c2cnc3sccn3c2=O)cc1C	–	5 to 20	–
CCC(C)c1ccc(NC(=O)c2cnc3sccn3c2=O)cc1 (stereo not shown)	< 5	> 20	–
CCc1cccc(NC(=O)c2cnc3scc(C)n3c2=O)c1	–	> 20	–
CCCCOC(=O)c1ccc(NC(=O)c2cnc3scc(C)n3c2=O)cc1	–	> 20	–
Cc1cccc2ncc(C(=O)NC3CC4CCC3C4)c(=O)n12 (stereo not shown)	< 5	5 to 20	–
